# Assays:
# [1] = target: T1, Enoyl-[acyl-carrier-protein] reductase [NADH] (Mycobacterium tuberculosis, UniProt P9WGR1); experiment: Inhibition of Mycobacterium tuberculosis Enoyl-[acyl-carrier-protein] reductase
# T1 sequence (P9WGR1 whole entry): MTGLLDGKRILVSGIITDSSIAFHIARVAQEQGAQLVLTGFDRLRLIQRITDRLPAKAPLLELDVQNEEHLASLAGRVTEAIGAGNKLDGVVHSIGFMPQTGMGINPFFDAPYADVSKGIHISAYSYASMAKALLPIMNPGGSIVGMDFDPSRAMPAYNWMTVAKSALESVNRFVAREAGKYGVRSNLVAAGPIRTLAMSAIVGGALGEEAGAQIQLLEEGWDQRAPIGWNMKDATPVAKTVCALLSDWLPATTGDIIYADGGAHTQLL
# [2] = Inhibition of Mycobacterium tuberculosis acyl-CoA corboxylase corboxyltransferase domain 5
compound,measurement,setting,value
CCCCCCCCc1ccc(Oc2ccccc2)c(O)c1,Ki,[1],0.001 µM
Nc1ccc(/N=N/c2ccc(-c3ccc(O)cc3)cc2)c2ccc(S(=O)(=O)O)cc12,Ki,[2],13 µM
